US8183235B2, “Dihydronaphthalene compound and use thereof” (Tokyo University of Science Educational Foundation …, priority 2007, dated 2012)
Residues, ends and D or L forms follow the SMILES beside them. *: point of attachment. Cbz = O=C(OCc1ccccc1)*

Assays:
[1] = molecular target: 20S proteasome chymotrypsin-like activity (Homo sapiens, UniProt P28074); experiment: Chymotrypsin-like activity inhibition test; format: biochemical; conditions: for remaining activity at 10 µM: read-out: % Control, Chymotrypsin-like Activity
[2] = system: central nervous system cancer cells; experiment: Proliferation inhibition, central nervous system cancer cell panel (summary); format: cell-based; conditions: read-out: cytotoxic activity (extent of effective concentration)
Description: (§1) As a comparison for the inhibition activity, tamoxifen citrate (TAM) was used. In the Table, the concentration units are μM.

KM-12 = experiment: Proliferation inhibition of colon cancer cells; format: cell-based; conditions: Homo sapiens, KM12
Description: as §1
(§2) In the same way as in Example 9, the proliferation inhibition activity of naforidaifens A to G was measured with respect to five types of colon cancer cells (HCC2998, KM-12, HT-29, HCT-15, and HCT-116). In the Table, the concentration units are μM.

HCT-116 = experiment: Proliferation inhibition of colon cancer cells; format: cell-based; conditions: Homo sapiens
Description: as §1, §2

HCC2998 = experiment: Proliferation inhibition of colon cancer cells; format: cell-based; conditions: Homo sapiens, HCC 2998
Description: as §1, §2

HT-29 = experiment: Proliferation inhibition of colon cancer cells; format: cell-based; conditions: Homo sapiens
Description: as §1, §2

HCT-15 = experiment: Proliferation inhibition of colon cancer cells; format: cell-based; conditions: Homo sapiens
Description: as §1, §2

20S proteasome = 20S proteasome (Homo sapiens, UniProt P28072+P28074+Q99436); experiment: Proteasome inhibition activity, overall judgement; format: biochemical; conditions: overall judgement positive/negative
OVCAR-5 = experiment: Proliferation inhibition of ovarian cancer cells; format: cell-based; conditions: Homo sapiens
Description: as §1
(§3) In the same way as in Example 9, the proliferation inhibition activity of naforidaifens A to G was measured with respect to five types of ovarian cancer cells (OVCAR-3, OVCAR-4, OVCAR-5, OVCAR-8, AND SK-OV-3). In the Table, the concentration units are μM.

OVCAR-3 = experiment: Proliferation inhibition of ovarian cancer cells; format: cell-based; conditions: Homo sapiens
Description: as §1, §3

SK-OV-3 = experiment: Proliferation inhibition of ovarian cancer cells; format: cell-based; conditions: Homo sapiens
Description: as §1, §3

OVCAR-8 = experiment: Proliferation inhibition of ovarian cancer cells; format: cell-based; conditions: Homo sapiens
Description: as §1, §3

OVCAR-4 = experiment: Proliferation inhibition of ovarian cancer cells; format: cell-based; conditions: Homo sapiens
Description: as §1, §3

SNB-78 = experiment: Inhibition of propagation of central nervous system cancer cells (sulforhodamin B); format: cell-based; conditions: Homo sapiens, 48 h; SNB-78, two days of cultivation
Description: as §1

SF-268 = experiment: as above; format: cell-based; conditions: Homo sapiens, 48 h; SF-268, two days of cultivation
Description: as §1

U251 = experiment: as above; format: cell-based; conditions: Homo sapiens, U-251, 48 h; U251, two days of cultivation
Description: as §1

SNB-75 = experiment: as above; format: cell-based; conditions: Homo sapiens, 48 h; SNB-75, two days of cultivation
Description: as §1

SF-539 = experiment: as above; format: cell-based; conditions: Homo sapiens, 48 h; SF-539, two days of cultivation
Description: as §1

SF-295 = experiment: as above; format: cell-based; conditions: Homo sapiens, 48 h; SF-295, two days of cultivation
Description: as §1

MKN7 = experiment: Proliferation inhibition of stomach cancer cells; format: cell-based; conditions: Homo sapiens, MKN-7
Description: as §1
(§4) In the same way as in Example 9, the proliferation inhibition activity of naforidaifens A to G was measured with respect to six types of stomach cancer cells (St-4, MKN1, MKN7, MKN28, MKN45, MKN74). In the Table, the concentration units are μM.

St-4 = experiment: Proliferation inhibition of stomach cancer cells; format: cell-based; conditions: Homo sapiens
Description: as §1, §4

MKN74 = experiment: Proliferation inhibition of stomach cancer cells; format: cell-based; conditions: Homo sapiens, MKN-74
Description: as §1, §4

MKN28 = experiment: Proliferation inhibition of stomach cancer cells; format: cell-based; conditions: Homo sapiens, MKN-28
Description: as §1, §4

MKN1 = experiment: Proliferation inhibition of stomach cancer cells; format: cell-based; conditions: Homo sapiens, MKN-1
Description: as §1, §4

MKN45 = experiment: Proliferation inhibition of stomach cancer cells; format: cell-based; conditions: Homo sapiens, MKN-45
Description: as §1, §4

`CC(C)[C@H](O)[C@@]12NC(=O)[C@H](C)[C@@H]1OC2=O` [Clasto-Lactacystin β-Lactone, reference compound] was tested, and the IC50 [1] was 39 nM and the “% Control, Chymotrypsin-like Activity” value ([1]; Concentration 10 μM) was 0%.
`CC(C)C[C@@H](C=O)NC(=O)[C@H](CC(C)C)NC(=O)[C@H](CC(C)C)NC(=O)OCc1ccccc1` [MG132, reference compound] (Cbz-Leu-Leu-Leu-aldehyde) was tested, and the remaining activity at 10 µM [1] was 0%.
For `CN(C)CCOc1ccc(C2=C(c3ccccc3)CCc3cc(OCCN(C)C)ccc32)cc1` [Naforidaifen A, 4-[4-(2-dimethylamino-1-yl-ethoxy)phenyl]-7-(2-dimethylamino-1-yl-ethoxy)-3-phenyl-1,2-dihydronaphthalene], the IC50 [2] was 1400 to 1900 nM, the GI50 (KM-12) was 1860 nM and the GI50 (HCT-116) was 1100 nM. The GI50 (HCC2998) was 1480 nM, the GI50 (HT-29) was 759 nM and the GI50 (HCT-15) was 1660 nM. For the same compound, the “The evaluations (proteasome inhibition activity)” value (20S proteasome) was “negative”, the GI50 (OVCAR-5) was 1550 nM and the GI50 (OVCAR-3) was 1620 nM. The GI50 (SK-OV-3) was 2290 nM, the GI50 (OVCAR-8) was 2880 nM and the GI50 (OVCAR-4) was 2140 nM. The IC50 [1] was greater than 10000 nM, the remaining activity at 10 µM [1] was 99.5% and the GI50 (SNB-78) was 1820 nM. It also gave a GI50 (SF-268) of 1950 nM, a GI50 (U251) of 1450 nM and a GI50 (SNB-75) of 1480 nM. The GI50 (SF-539) was 1550 nM, the GI50 (SF-295) was 1740 nM and the GI50 (MKN7) was 1580 nM. For the same compound, the GI50 (St-4) was 1480 nM, the GI50 (MKN74) was 1410 nM and the GI50 (MKN28) was 1820 nM. It also gave a GI50 (MKN1) of 1480 nM and a GI50 (MKN45) of 1740 nM.
